According to patent publication US5912232A, “Anti-inflammatory polypeptide antagonists of human I1-8” (Board of Regents of the University of Nebraska, priority 1996, dated 1999):
Where no end group is shown, it is not given here.

Assays:
[1] = test system: arachidonic acid induced ear inflammation; assay: arachidonic acid induced ear inflammation in mice (ear thickness/edema); format: in vivo, C57BL/6 female mice; conditions: ip 1 hour prior to arachidonic acid; ear thickness 1 hour post challenge; FIGS. 1 and 2
Description: A stock solution of 5 mgml of example 1 was prepared in D-PBS. The Analog 1 consists of 88.1% active peptide and the calculations were adjusted to compensate for the activity of the Analog 1. Serial dilutions were then made resulting in solutions of appropriate doses of Analog 1 in 0.2 ml. The animals were injected ip with 0.2 ml of the appropriate solution 1 hour prior to arachidonic acid application. The study consisted of various dosage groups as well as excipient groups. The animals used for the study were C57BL/6 female mice, which were obtained from Jackson Laboratories (age 8 weeks and weight 15-18 g). The mice were housed in conventional cages, fed pelleted food and given water ad libitum. The arachidonic acid (Sigma Lot #42H7817) was dissolved in methyl alcohol resulting in a final concentration of 2 mg/20 μl. […] One hour post challenge, the test and control ears were measured for thickness using a Mitutoyo No. 7300 gauge caliper. The thickness was recorded in units of 0.001 inches. […] The effect of Analog 1, which is on IL-8 low molecular weight peptide analog residue 6-19 on arachidonic acid induced ear inflammation was evaluated in vivo, according to the methods described in Example II. In this model, the application of arachidonic acid to the pinna of mice induces an immediate PMN-associated erythema and edema which may be measured by change in thickness. […]

neutrophils (PMNs) = assay: IL-8 induced Ca release in Fluo-3 loaded neutrophils, flow cytometry; format: cell-based, human; conditions: PMNs pre-incubated with analog at 10^-6 M; IL-8 10^-6 M; FIG. 6
Description: Polymorphonuclear leukocytes (≥95% neutrophils, PMNs) were isolated from heparinized (10 μ/ml) blood collected from healthy volunteers. Erythrocytes were removed by 6% dextran sedimentation for 30 minutes at room temperature, and then the supernatant was subjected to Ficoll (Ficoll-Papque, Pharmacia LKB, Uppsala, Sweden) density gradient centrifugation. PMNs were obtained from the pellet. Contaminated erythrocytes were eliminated by one cycle of hypotonic lysis. After an additional washing step the cells were counted and adjusted to a final concentration of 5×10^6 /ml in RPMI 1640 (Gibco, Grand Island, N.Y.).
The loading procedure with Fluo-3 (Molecular Probes, Eugene, Oreg.) was carried out with PMNs suspended at a density of 5×10^6 /ml in fresh RPMI 1640 containing 2.0 μM Fluo-3 AM (prediluted in dimethyl sulfoxide; Sigma Chemicals) in polypropylene tubes (Falcon 2063, Becton Dickinson). We incubated the PMNs for 25 minutes at 37 degrees C in a 5% CO2 incubator. […]
Before addition of the stimuli the fluorescence channel of the FACScan Plus (Becton Dickinson) was adjusted to find the basal fluorescence level of loaded but unstimulated PMNs. The samples were excited by an argon laser at 488 nm and emission was measured at 525 nm (green fluorescence, channel FL1). […] The fluorescence of Fluo-3-loaded cells was measured in arbitrary fluorescence units of mean channel fluorescence (channel FL1). […]

IL-8 = assay: activity of IL-8 analog compared to analog 1 (test not specified); design: species or system human; conditions: C-terminally truncated (residues 6 to 16)
Description: The biological activity of an analog of the invention is determined by blocking with the analog an activity with naturally occurring IL-8.

Sequence | EC-50 for blocking edema [1] | block of Ca signal transduction induced by IL-8 (neutrophils (PMNs)) | activity compared to analog 1 (IL-8)
RCQCIKTYSKPFHPK (cysteine pairing not given here) [Analog 1] | ~1 μg/animal | blocked the Ca signal transduction | –
RCQCLQTLQGIHPK (cysteine pairing not given here) [Analog 2, Derived from Alpha Chemokine GRO (MGSA); b140 describes it as IL-8 residues 6 to 16] | – | – | slight loss of activity
